In patent US12312359B2 (Vitae Pharmaceuticals, LLC, priority 2016, dated 2025):

How the values were obtained:
[1] = test system: human acute monocytic leukemia cell line MV-4-11; assay: Assay 2: cell proliferation assay (ATP quantitation, CellTiter-Glo), MV-4-11; assay type: cell-based; settings: MV-4-11 cells
Procedure, shortened: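 Read-out is CellTiter-Glo luminescence quantifying ATP. Compound exposure lasted 72 h at 37° C., 5% CO2, with 1.67×10^4 MV-4-11 cells per well in 10% FBS medium, alongside HL-60 toxicity-control cells.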

[2] = biological target: T1, biotinylated wild-type menin and MLL-AF9 fusion protein (menin/MLL binding) (Homo sapiens, UniProt O00255); assay: Assay 1: menin/MLL binding AlphaLISA assay, wild-type menin; settings: Table 30; column head does not say wild-type or mutated menin
T1 construct: made in house; host or cells: menin: E. coli; MLL-AF9-FLAG: HEK293 cells, used as cleared lysate
T1 sequence (O00255 1-610): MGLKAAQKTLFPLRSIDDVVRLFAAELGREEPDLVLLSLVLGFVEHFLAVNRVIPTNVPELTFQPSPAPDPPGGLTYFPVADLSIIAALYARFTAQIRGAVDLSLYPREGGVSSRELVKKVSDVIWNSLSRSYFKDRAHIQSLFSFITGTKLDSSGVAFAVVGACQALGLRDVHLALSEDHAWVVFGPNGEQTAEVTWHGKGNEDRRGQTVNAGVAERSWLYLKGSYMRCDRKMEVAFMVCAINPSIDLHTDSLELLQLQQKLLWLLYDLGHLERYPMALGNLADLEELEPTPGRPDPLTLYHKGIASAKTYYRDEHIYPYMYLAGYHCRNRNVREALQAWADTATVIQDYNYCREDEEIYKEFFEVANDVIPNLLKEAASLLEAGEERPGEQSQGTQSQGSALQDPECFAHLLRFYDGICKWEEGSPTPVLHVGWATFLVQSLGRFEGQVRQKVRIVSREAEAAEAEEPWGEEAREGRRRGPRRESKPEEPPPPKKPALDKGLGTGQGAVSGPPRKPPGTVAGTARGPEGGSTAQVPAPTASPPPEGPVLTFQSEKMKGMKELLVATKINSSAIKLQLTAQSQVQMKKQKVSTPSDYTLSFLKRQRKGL
Procedure, shortened: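 Compound was preincubated 30 min at room temperature with biotinylated menin (5 nM) and MLL-AF9-FLAG lysate from HEK293 cells, pH 7.4 buffer with 5% DMSO and DTT. Bead-based Alpha signal after 60 min with streptavidin donor and anti-FLAG acceptor beads; four-parameter logistic fit gave IC50.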

| EC50 ([1]; Homo sapiens, MV4-11, 72 h) [nM] | IC50 [2] [nM] | Compound | EC50 ([1]; 72 h) [nM] |
| --- | --- | --- | --- |
| 100 to 1000 | < 100 | CC(C)N(C(=O)c1cc(F)ccc1Oc1cncnc1N1CC2(CCN(CC(C)(C)O)CC2)C1)C(C)C [Example 89, 5-fluoro-2-((4-(7-(2-hydroxy-2-methylpropyl)-2,7-diazaspiro[3.5]nonan-2-yl)pyrimidin-5-yl)oxy)-N,N-diisopropylbenzamide] | – |
| 100 to 1000 | < 100 | CC(C)c1ccccc1-c1cc(F)ccc1Oc1cncnc1N1CC2(CN(C(=O)Cc3ccc(S(C)(=O)=O)cc3)C2)C1 [Example 229, 1-(6-(5-((5-fluoro-2′-isopropyl-[1,1′-biphenyl]-2-yl)oxy)pyrimidin-4-yl)-2,6-diazaspiro[3.3]heptan-2-yl)-2-(4-(methylsulfonyl)phenyl)ethan-1-one] | – |
| 100 to 1000 | < 100 | CC(C)N(C(=O)c1cc(F)ccc1Oc1cncnc1N1CC2(CN(C(=O)Cc3ccc(C#N)cc3)C2)C1)C(C)C [Example 116, 2-((4-(6-(2-(4-cyanophenyl)acetyl)-2,6-diazaspiro[3.3]heptan-2-yl)pyrimidin-5-yl)oxy)-5-fluoro-N,N-diisopropylbenzamide] | – |
| < 100 | < 100 | CC(O)c1ccccc1-c1cc(F)ccc1Oc1cncnc1N1CCC2(CCN(Cc3ccc4[nH]c(=O)[nH]c4c3)C2)C1 (single isomer, unassigned) [Example 60A, 5-((7-(5-((5-fluoro-2′-(1-hydroxyethyl)-[1,1′-biphenyl]-2-yl)oxy)pyrimidin-4-yl)-2,7-diazaspiro[4.4]nonan-2-yl)methyl)-1H-benzo[d]imidazol-2(3H)-one] | – |
| 100 to 1000 | < 100 | COC(=O)[C@@H]1CC1c1cc(F)ccc1Oc1cncnc1N1CCC2(CCN(Cc3ccc4[nH]c(=O)[nH]c4c3)C2)C1 (stereo partly drawn) [Example 37, Methyl 2-(5-fluoro-2-((4-(7-((2-oxo-2,3-dihydro-1H-benzo[d]imidazol-5-yl)methyl)-2,7-diazaspiro[4.4]nonan-2-yl)pyrimidin-5-yl)oxy)phenyl)cyclopropanecarboxylate] | – |
| 100 to 1000 | < 100 | N[C@H]1CC[C@H](CCN2CC3(C2)CN(c2ncncc2Oc2ccc(F)cc2-c2cccnc2C2CC2)C3)CC1 [Example 82, (1r,4r)-4-(2-(6-(5-(2-(2-cyclopropylpyridin-3-yl)-4-fluorophenoxy)pyrimidin-4-yl)-2,6-diazaspiro[3.3]heptan-2-yl)ethyl)cyclohexan-1-amine] | – |
| < 100 | < 100 | CC(C)N(C)C(=O)c1cc(F)ccc1Oc1cncnc1N1CCC2(CCN(Cc3ccc4[nH]c(=O)[nH]c4c3)C2)C1 (stereo not drawn) [Example 183, 5-fluoro-N-isopropyl-N-methyl-2-((4-(7-((2-oxo-2,3-dihydro-1H-benzo[d]imidazol-5-yl)methyl)-2,7-diazaspiro[4.4]nonan-2-yl)pyrimidin-5-yl)oxy)benzamide] | – |
| < 100 | < 100 | CC(C)c1ncncc1-c1cc(F)ccc1Oc1cncnc1N1CC2(CCN(C(=O)Cc3ccc(C#N)cc3)C2)C1 [Example 149, 4-(2-(2-(5-(4-fluoro-2-(4-isopropylpyrimidin-5-yl)phenoxy)pyrimidin-4-yl)-2,6-diazaspiro[3.4]octan-6-yl)-2-oxoethyl)benzonitrile] | – |
| ≥ 1000 | < 100 | Fc1ccc(Oc2cncnc2N2CC3(CN(CC4CCOCC4)C3)C2)c(OC2CCCC2)c1 [Example 168, 2-(5-(2-(cyclopentyloxy)-4-fluorophenoxy)pyrimidin-4-yl)-6-((tetrahydro-2H-pyran-4-yl)methyl)-2,6-diazaspiro[3.3]heptane] | – |
| < 100 | < 100 | CCc1ncccc1-c1cc(F)ccc1Oc1cncnc1N1CCC2(CCN(Cc3ccc4[nH]c(=O)[nH]c4c3)C2)C1 (stereo not drawn) [Example 234, 5-((7-(5-(2-(2-ethylpyridin-3-yl)-4-fluorophenoxy)pyrimidin-4-yl)-2,7-diazaspiro [4.4]nonan-2-yl)methyl)-1,3-dihydro-2H-benzo[d]imidazol-2-one] | – |
| 100 to 1000 | < 100 | CC(=O)N[C@H]1CC[C@@H](CN2CCC3(CCN(c4ncncc4Oc4ccc(F)cc4-c4ccc(C#N)cc4C4CC4)C3)C2)CC1 (stereo partly drawn) [Example 190A, N-((1s,4s)-4-((7-(5-((4′-cyano-2′-cyclopropyl-5-fluoro-[1,1′-biphenyl]-2-yl)oxy)pyrimidin-4-yl)-2,7-diazaspiro[4.4]nonan-2-yl)methyl)cyclohexyl) acetamide] | – |
| – | < 100 | Cc1cc(C#N)ccc1-c1cc(F)ccc1Oc1cncnc1N1CCC2(CCN(Cc3ccc4[nH]c(=O)[nH]c4c3)C2)C1 (stereo not drawn) [Example 48, 5′-fluoro-2-methyl-2′-((4-(7-((2-oxo-2,3-dihydro-1H-benzo[d]imidazol-5-yl)methyl)-2,7-diazaspiro[4.4]nonan-2-yl)pyrimidin-5-yl)oxy)-[1,1′-biphenyl]-4-carbonitrile] | 100 to 1000 |
| < 100 | < 100 | Fc1ccc(Oc2cncnc2N2CC3(CN(CC4CCOCC4)C3)C2)c(-c2cccnc2C2CC2)c1 [Example 177, 2-(5-(2-(2-cyclopropylpyridin-3-yl)-4-fluorophenoxy)pyrimidin-4-yl)-6-((tetrahydro-2H-pyran-4-yl)methyl)-2,6-diazaspiro[3.3] heptane] | – |
| 100 to 1000 | < 100 | CC(C)c1ncncc1-c1cc(F)ccc1Oc1cncnc1N1CC2(CN(C(=O)Cc3ccc4c(c3)NC(=O)C4(C)C)C2)C1 [Example 133, 6-(2-(6-(5-(4-fluoro-2-(4-isopropylpyrimidin-5-yl)phenoxy)pyrimidin-4-yl)-2,6-diazaspiro[3.3]heptan-2-yl)-2-oxoethyl)-3,3-dimethylindolin-2-one] | – |
| < 100 | < 100 | CC1(C)C(=O)Nc2cc(CN3CCC4(CCN(c5ncncc5Oc5ccc(F)cc5-c5ccc(C#N)cc5C5CC5)C4)C3)ccc21 (stereo not drawn) [Example 205, 2-cyclopropyl-2′-((4-(7-((3,3-dimethyl-2-oxoindolin-6-yl)methyl)-2,7-diazaspiro[4.4]nonan-2-yl)pyrimidin-5-yl)oxy)-5′-fluoro-[1,1′-biphenyl]-4-carbonitrile] | – |
| < 100 | < 100 | CCN(C(=O)C(C)C)c1cc(F)ccc1Oc1cncnc1N1CC2(CCN(C[C@H]3CC[C@H](NC(=O)OC(C)(C)C)CC3)CC2)C1 [Example 84, tert-butyl ((1r,4r)-4-((2-(5-(2-(N-ethylisobutyramido)-4-fluorophenoxy)pyrimidin-4-yl)-2,7-diazaspiro[3.5]nonan-7-yl)methyl)cyclohexyl) carbamate] | – |
| ≥ 1000 | < 100 | CC(C)N(C(=O)c1cc(F)ccc1Oc1cncnc1N1CCC2(CCC(N)(Cc3ccc(C#N)cc3)C2)C1)C(C)C (single isomer, unassigned) [Example 22A, 2-((4-(7-amino-7-(4-cyanobenzyl)-2-azaspiro[4.4]nonan-2-yl)pyrimidin-5-yl)oxy)-5-fluoro-N,N-diisopropylbenzamide] | – |

| Compound | EC50 ([1]; Homo sapiens, MV4-11, 72 h) [nM] | IC50 [2] [nM] | EC50 ([1]; 72 h) [nM] |
| --- | --- | --- | --- |
| 2-((4-(7-(((1r,4r)-4- (3,3- dimethylureido)cyclo- hexyl) methyl)- 2,7-diazaspiro [3.5]nonan-2- yl)pyrimidin-5- yl)oxy)-5-fluoro- N,N-diisopropyl benzamide [Example 97] | – | < 100 | 100 to 1000 |
